pIC50, pKi: −log10 of the molar value. Blank lines part the entries; values can stand above or below the molecule they belong to.
Legend:
Coagulation factor X = Coagulation factor X (Homo sapiens, UniProt P00742); test: Inhibition of Factor 10a
[1] = Metabolic stability in rat liver S9 fraction at 1 uM by HPLC; format: ADME, subcellular
[2] = Oral bioavailability in rat; format: ADME, organism-based; conditions: in vivo
[3] = Half life in rat; format: ADME, organism-based; conditions: in vivo
[4] = Clearance in rat; format: ADME, organism-based; conditions: in vivo
[5] = Metabolic stability in human liver S9 fraction at 1 uM by HPLC; format: ADME, subcellular
[6] = AUC in Beagle dog at 1 mg/kg, po; format: ADME, organism-based, Canis lupus familiaris; parameters: dose 1 mg/kg, route oral; conditions: plasma
[7] = Inhibition of kallikrein
Plasminogen = Plasminogen (Homo sapiens, UniProt P00747); test: Inhibition of plasmin
Chain of Plasminogen (P00747 97-580 limits assumed): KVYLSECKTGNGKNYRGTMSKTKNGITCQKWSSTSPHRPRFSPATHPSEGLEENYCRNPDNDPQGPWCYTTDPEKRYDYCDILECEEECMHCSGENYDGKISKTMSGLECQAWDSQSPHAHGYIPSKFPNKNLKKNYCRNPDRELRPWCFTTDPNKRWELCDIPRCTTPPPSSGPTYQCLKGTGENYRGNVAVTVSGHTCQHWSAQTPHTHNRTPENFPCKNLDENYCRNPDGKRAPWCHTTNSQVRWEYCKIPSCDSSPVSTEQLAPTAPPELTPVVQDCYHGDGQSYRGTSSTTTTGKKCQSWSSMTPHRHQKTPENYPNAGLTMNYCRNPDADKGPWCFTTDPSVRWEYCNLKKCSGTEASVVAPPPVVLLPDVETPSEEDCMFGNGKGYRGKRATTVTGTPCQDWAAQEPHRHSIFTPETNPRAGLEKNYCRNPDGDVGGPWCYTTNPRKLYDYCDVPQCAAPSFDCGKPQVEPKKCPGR
Chain of Plasminogen (P00747 581-810 limits assumed): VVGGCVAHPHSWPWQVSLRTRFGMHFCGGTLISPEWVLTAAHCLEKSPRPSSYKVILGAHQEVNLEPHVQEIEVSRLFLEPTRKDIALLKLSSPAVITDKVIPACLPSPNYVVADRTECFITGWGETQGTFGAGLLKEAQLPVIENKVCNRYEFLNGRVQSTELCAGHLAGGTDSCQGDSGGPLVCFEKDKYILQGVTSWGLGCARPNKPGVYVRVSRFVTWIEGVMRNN

[8] = Volume of distribution in cynomolgus monkey at 0.1 mg/kg, iv and 1 mg/kg, po; format: ADME, organism-based, Macaca fascicularis; conditions: in vivo
[9] = AUC in rat at 6 mg/kg, po; format: ADME, organism-based; parameters: dose 6 mg/kg, route oral; conditions: plasma
[10] = Clearance in cynomolgus monkey at 0.1 mg/kg, iv and 1 mg/kg, po; format: ADME, organism-based, Macaca fascicularis; conditions: in vivo
[11] = Volume of distribution in rat at 0.2 mg/kg, iv and 6 mg/kg, po; format: ADME, organism-based; conditions: in vivo
[12] = Clearance in Beagle dog at 0.1 mg/kg, iv and 1 mg/kg, po; format: ADME, organism-based, Canis lupus familiaris; conditions: in vivo
[13] = Inhibition of trypsin
[14] = Volume of distribution in Beagle dog at 0.1 mg/kg, iv and 1 mg/kg, po; format: ADME, organism-based, Canis lupus familiaris; conditions: in vivo
[15] = target: Tissue-type plasminogen activator (Homo sapiens, UniProt P00750); test: Inhibition of tissue plasminogen activator
Chain of Tissue-type plasminogen activator (P00750 whole entry): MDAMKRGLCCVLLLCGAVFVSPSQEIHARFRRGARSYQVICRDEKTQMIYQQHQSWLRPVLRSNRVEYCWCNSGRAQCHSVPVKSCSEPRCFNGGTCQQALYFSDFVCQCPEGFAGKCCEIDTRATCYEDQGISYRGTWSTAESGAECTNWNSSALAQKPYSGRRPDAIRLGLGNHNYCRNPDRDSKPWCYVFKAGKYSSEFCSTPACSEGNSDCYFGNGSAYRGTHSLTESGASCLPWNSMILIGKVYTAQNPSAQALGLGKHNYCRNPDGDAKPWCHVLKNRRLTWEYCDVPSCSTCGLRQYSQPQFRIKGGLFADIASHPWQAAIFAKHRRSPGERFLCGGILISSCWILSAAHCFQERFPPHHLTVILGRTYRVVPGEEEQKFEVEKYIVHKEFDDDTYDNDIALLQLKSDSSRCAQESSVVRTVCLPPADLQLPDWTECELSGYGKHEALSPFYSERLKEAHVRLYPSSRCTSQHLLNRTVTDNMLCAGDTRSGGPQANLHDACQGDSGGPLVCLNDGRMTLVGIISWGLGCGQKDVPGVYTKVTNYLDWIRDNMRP

[16] = AUC in cynomolgus monkey at 1 mg/kg, po; format: ADME, organism-based, Macaca fascicularis; parameters: dose 1 mg/kg, route oral; conditions: plasma
[17] = Half life in rat at 0.2 mg/kg, iv and 6 mg/kg, po; format: ADME, organism-based; conditions: in vivo
[18] = Oral bioavailability in rat at 6 mg/kg; format: ADME, organism-based; conditions: in vivo
[19] = target: Vitamin K-dependent protein C (Homo sapiens, UniProt P04070); test: Inhibition of activated anticoagulant protein C
Chain of Vitamin K-dependent protein C (P04070 43-197 limits assumed): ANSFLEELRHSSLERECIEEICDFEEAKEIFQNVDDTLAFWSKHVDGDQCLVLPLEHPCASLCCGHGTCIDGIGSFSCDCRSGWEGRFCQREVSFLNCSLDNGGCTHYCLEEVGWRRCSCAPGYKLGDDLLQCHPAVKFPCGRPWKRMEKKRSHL
Chain of Vitamin K-dependent protein C (P04070 212-461 limits assumed): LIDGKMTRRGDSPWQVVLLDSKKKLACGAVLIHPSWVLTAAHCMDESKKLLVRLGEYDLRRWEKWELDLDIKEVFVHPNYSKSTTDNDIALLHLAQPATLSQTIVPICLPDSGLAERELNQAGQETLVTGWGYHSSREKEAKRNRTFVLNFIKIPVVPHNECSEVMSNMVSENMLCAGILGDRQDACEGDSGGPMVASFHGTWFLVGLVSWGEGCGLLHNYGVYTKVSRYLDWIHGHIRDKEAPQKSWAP

[20] = Oral bioavailability in Beagle dog at 1 mg/kg; format: ADME, organism-based, Canis lupus familiaris; conditions: in vivo
[21] = Oral bioavailability in cynomolgus monkey at 1 mg/kg; format: ADME, organism-based, Macaca fascicularis; conditions: in vivo
Prothrombin = Prothrombin (Homo sapiens, UniProt P00734); test: Inhibition of thrombin
[22] = target: Voltage-gated inwardly rectifying potassium channel KCNH2 (Homo sapiens, UniProt Q12809)
Chain of Voltage-gated inwardly rectifying potassium channel KCNH2 (Q12809 whole entry): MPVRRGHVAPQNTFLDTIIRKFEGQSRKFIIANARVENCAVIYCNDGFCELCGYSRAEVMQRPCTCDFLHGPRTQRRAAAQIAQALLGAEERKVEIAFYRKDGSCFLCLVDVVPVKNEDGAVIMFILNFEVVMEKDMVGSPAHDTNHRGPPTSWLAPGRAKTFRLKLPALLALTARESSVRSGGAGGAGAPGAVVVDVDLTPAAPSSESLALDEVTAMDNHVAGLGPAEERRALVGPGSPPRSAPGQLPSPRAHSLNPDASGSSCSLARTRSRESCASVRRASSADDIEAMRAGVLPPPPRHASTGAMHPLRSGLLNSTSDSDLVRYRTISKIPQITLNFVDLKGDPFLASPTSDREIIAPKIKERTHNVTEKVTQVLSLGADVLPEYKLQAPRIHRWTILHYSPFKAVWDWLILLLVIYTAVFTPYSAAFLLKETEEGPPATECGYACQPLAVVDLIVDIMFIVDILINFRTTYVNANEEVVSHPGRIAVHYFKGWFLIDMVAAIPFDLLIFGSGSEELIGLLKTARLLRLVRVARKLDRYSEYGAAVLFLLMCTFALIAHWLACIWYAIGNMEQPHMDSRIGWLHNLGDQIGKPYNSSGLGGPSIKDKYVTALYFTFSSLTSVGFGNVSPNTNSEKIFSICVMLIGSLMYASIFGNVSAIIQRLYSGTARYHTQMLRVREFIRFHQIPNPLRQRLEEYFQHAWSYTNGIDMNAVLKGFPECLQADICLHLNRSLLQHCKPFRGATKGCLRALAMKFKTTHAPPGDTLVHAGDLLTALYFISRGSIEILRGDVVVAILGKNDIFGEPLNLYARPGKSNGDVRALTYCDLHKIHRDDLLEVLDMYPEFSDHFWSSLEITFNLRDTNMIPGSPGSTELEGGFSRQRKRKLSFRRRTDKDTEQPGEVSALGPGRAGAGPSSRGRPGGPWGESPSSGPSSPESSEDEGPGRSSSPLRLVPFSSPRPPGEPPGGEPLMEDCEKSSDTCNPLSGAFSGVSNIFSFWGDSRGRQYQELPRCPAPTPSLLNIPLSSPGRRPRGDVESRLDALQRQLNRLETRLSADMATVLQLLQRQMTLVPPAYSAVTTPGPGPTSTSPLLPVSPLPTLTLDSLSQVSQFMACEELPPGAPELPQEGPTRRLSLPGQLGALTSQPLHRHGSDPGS

[23] = Clearance in rat at 0.2 mg/kg, iv and 6 mg/kg, po; format: ADME, organism-based; conditions: in vivo
[24] = Half life in Beagle dog at 0.1 mg/kg, iv and 1 mg/kg, po; format: ADME, organism-based, Canis lupus familiaris; conditions: in vivo
[25] = Half life in cynomolgus monkey at 0.1 mg/kg, iv and 1 mg/kg, po; format: ADME, organism-based, Macaca fascicularis; conditions: in vivo

Chain of Coagulation factor X (P00742 41-179 limits assumed): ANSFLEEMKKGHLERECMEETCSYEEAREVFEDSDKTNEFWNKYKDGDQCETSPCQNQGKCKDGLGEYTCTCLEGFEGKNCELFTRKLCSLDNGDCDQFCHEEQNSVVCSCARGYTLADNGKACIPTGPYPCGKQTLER
Chain of Coagulation factor X (P00742 235-488 limits assumed): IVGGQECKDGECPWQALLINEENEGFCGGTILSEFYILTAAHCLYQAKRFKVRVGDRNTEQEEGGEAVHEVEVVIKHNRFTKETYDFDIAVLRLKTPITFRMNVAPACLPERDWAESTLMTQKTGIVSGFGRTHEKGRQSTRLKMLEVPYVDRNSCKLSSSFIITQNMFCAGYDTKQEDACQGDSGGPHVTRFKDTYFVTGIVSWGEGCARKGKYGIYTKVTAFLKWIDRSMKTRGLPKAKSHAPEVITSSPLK

pIC50 (Coagulation factor X): 8.89
Structure (SMILES): CN(C)C(=N)c1ccc(C(=O)Nc2ccc(C(F)(F)F)cc2C(=O)Nc2ccc(Cl)cn2)cc1

pIC50 (Coagulation factor X): 8.70
Structure (SMILES): COc1ccc(NC(=O)c2ccc(C(=N)N(C)C)cc2N2CCCCC2)c(C(=O)Nc2ccc(Cl)cn2)c1

pIC50 (Coagulation factor X): 9.30
Structure (SMILES): COc1cc(C(=N)N(C)C)ccc1C(=O)Nc1ccc(Cl)cc1C(=O)Nc1ccc(Cl)cn1

pIC50 (Coagulation factor X): 8.70
Structure (SMILES): N=C(c1ccc(C(=O)Nc2ccc(Cl)cc2C(=O)Nc2ccc(Cl)cn2)cc1)N1CCOCC1

pIC50 (Coagulation factor X): 9.05
bioavailability [2]: < 5%
Structure (SMILES): COc1ccc(NC(=O)c2ccc(C(=N)N(C)C)cc2N2CCC(C(=O)O)CC2)c(C(=O)Nc2ccc(Cl)cn2)c1

pIC50 (Coagulation factor X): 9.30
Structure (SMILES): CCN(C)c1cc(Cl)cc(C(=O)Nc2ccc(Cl)cn2)c1NC(=O)c1ccc(C(=N)N(C)C)cc1

pIC50 (Coagulation factor X): 8.70
Structure (SMILES): CN(C)C(=N)c1ccc(C(=O)Nc2cc(Cl)ccc2C(=O)Nc2ccc(Cl)cn2)cc1

pIC50 (Coagulation factor X): 8.85
Structure (SMILES): CN(C)C(=N)c1ccc(C(=O)Nc2ccc(F)cc2C(=O)Nc2ccc(Cl)cn2)cc1

AUC [6]: 381 ng·h/mL
pIC50 [7]: 6.27
pIC50 (Plasminogen): < 5.00
Vd [8]: 20.5 L/kg
AUC [9]: 2420 ng·h/mL
clearance [10]: 11.2 mL/min/kg
Vd [11]: 6.9 L/kg
clearance [12]: 30.5 mL/min/kg
pIC50 [13]: < 5.00
pIC50 (Coagulation factor X): > 9.30
pKi (Coagulation factor X): 10.22
Vd [14]: 35.1 L/kg
pIC50 [15]: < 5.00
AUC [16]: 1300 ng·h/mL
half-life [17]: 5.2 h
bioavailability [18]: 38%
pIC50 [19]: < 5.00
bioavailability [2]: 38%
bioavailability [20]: 68.8%
bioavailability [21]: 86.1%
pIC50 (Prothrombin): < 5.00
clearance [4]: 15.3 mL/min/kg
clearance [23]: 15.3 mL/min/kg
half-life [24]: 13.1 h
half-life [25]: 22.8 h
Structure (SMILES): CN(C)C(=N)c1ccc(C(=O)Nc2ccc(Cl)cc2C(=O)Nc2ccc(Cl)cn2)c(F)c1
pKi [22]: 6.38

pIC50 (Coagulation factor X): > 9.30
bioavailability [2]: 27.9%
half-life [3]: 8.4 h
clearance [4]: 74.8 mL/min/kg
Structure (SMILES): C#Cc1ccc(NC(=O)c2ccc(C(=N)N(C)C)cc2)c(C(=O)Nc2ccc(Cl)cn2)c1

pIC50 (Coagulation factor X): 8.52
Structure (SMILES): CN(C)C(=N)c1ccc(C(=O)Nc2ccc(Cl)cc2C(=O)Nc2ccc(Cl)cn2)cn1

pIC50 (Coagulation factor X): 8.52
Structure (SMILES): CN(C)C(=N)c1ccc(C(=O)Nc2ccc(Cl)cc2C(=O)Nc2ccc(Cl)nc2)cc1

pIC50 (Coagulation factor X): 8.70
Structure (SMILES): CN(C)C(=N)c1ccc(C(=O)Nc2ccsc2C(=O)Nc2ccc(Cl)cn2)cc1

The next lines start with the molecule.

Structure (SMILES): CSc1ccc(NC(=O)c2ccc(C(=N)N(C)C)cc2)c(C(=O)Nc2ccc(Cl)cn2)c1
pIC50 (Coagulation factor X): > 9.30
half-life at 1 µM [1]: > 2 h
bioavailability [2]: 26.7%
half-life [3]: 16.5 h
clearance [4]: 77.1 mL/min/kg
half-life at 1 µM [5]: > 2 h

Structure (SMILES): CN(C)C(=N)c1ccc(C(=O)Nc2ccc(OCC(=O)O)cc2C(=O)Nc2ccc(Cl)cn2)cc1
pIC50 (Coagulation factor X): 8.22
bioavailability [2]: < 5%

Structure (SMILES): CN(C)C(=N)c1ccc(C(=O)Nc2ccc(OC(F)(F)F)cc2C(=O)Nc2ccc(Cl)cn2)cc1
pIC50 (Coagulation factor X): 7.77

Structure (SMILES): CN(C)C(=N)c1ccc(C(=O)Nc2c(Cl)cccc2C(=O)Nc2ccc(Cl)cn2)cc1
pIC50 (Coagulation factor X): 7.68

Structure (SMILES): CN(C)C(=N)c1ccc(C(=O)Nc2ccc(C#N)cc2C(=O)Nc2ccc(Cl)cn2)cc1
pIC50 (Coagulation factor X): 8.92

Structure (SMILES): CCOc1cc(Cl)cc(C(=O)Nc2ccc(Cl)cn2)c1NC(=O)c1ccc(C(=N)N(C)C)cc1
pIC50 (Coagulation factor X): 9.22

Structure (SMILES): CN(C)C(=N)c1ccc(C(=O)Nc2ccc(Cl)cc2C(=O)Nc2ccc(Cl)cn2)c(N2CCCCCC2)c1
pIC50 (Coagulation factor X): 9.00

Structure (SMILES): CN(C)C(=N)c1ccc(C(=O)Nc2ccc(Cl)cc2C(=O)Nc2ccc(F)cn2)cc1
pIC50 (Coagulation factor X): 8.52

Structure (SMILES): COCCN(C)c1cc(C(=N)N(C)C)ccc1C(=O)Nc1ccc(Cl)cc1C(=O)Nc1ccc(Cl)cn1
pIC50 (Coagulation factor X): 9.30

Structure (SMILES): Cc1ccc(NC(=O)c2ccc(C(=N)N(C)C)cc2)c(C(=O)Nc2ccc(Cl)cn2)c1
pIC50 (Coagulation factor X): 9.15

Structure (SMILES): CN(C)C(=N)c1ccc(C(=O)Nc2ccc(Cl)cc2C(=O)Nc2ccc(Cl)cn2)c(N2CCC2)c1
pIC50 (Coagulation factor X): 9.40

Structure (SMILES): Cc1ccc(NC(=O)c2cc(Cl)ccc2NC(=O)c2ccc(C(=N)N(C)C)cc2)nc1
pIC50 (Coagulation factor X): 8.96

Structure (SMILES): N=C(c1ccc(C(=O)Nc2ccc(Cl)cc2C(=O)Nc2ccc(Cl)cn2)cc1)N1CCC1
pIC50 (Coagulation factor X): 8.92

Structure (SMILES): C#Cc1ccc(NC(=O)c2cc(Cl)ccc2NC(=O)c2ccc(C(=N)N(C)C)cc2)nc1
pIC50 (Coagulation factor X): 9.10
half-life at 1 µM [1]: > 2 h
half-life [3]: 6.3 h
clearance [4]: > 100 mL/min/kg
half-life at 1 µM [5]: > 2 h

Structure (SMILES): CCN(C)C(=N)c1ccc(C(=O)Nc2ccc(Cl)cc2C(=O)Nc2ccc(Cl)cn2)cc1
pIC50 (Coagulation factor X): 9.05

Structure (SMILES): N=C(c1ccc(C(=O)Nc2ccc(Cl)cc2C(=O)Nc2ccc(Cl)cn2)cc1)N1CCCCC1
pIC50 (Coagulation factor X): 8.89
